{
  "source": "patent US20050137239A1",
  "about": "“Thiazole derivatives” (priority 2003, published 2005)",
  "key": {"glucose oxidase": {"target": "T1, glucose oxidase (Aspergillus niger, UniProt P13006)", "T1 construct": "purchased", "T1 sequence (P13006 17-605, species assumed)": "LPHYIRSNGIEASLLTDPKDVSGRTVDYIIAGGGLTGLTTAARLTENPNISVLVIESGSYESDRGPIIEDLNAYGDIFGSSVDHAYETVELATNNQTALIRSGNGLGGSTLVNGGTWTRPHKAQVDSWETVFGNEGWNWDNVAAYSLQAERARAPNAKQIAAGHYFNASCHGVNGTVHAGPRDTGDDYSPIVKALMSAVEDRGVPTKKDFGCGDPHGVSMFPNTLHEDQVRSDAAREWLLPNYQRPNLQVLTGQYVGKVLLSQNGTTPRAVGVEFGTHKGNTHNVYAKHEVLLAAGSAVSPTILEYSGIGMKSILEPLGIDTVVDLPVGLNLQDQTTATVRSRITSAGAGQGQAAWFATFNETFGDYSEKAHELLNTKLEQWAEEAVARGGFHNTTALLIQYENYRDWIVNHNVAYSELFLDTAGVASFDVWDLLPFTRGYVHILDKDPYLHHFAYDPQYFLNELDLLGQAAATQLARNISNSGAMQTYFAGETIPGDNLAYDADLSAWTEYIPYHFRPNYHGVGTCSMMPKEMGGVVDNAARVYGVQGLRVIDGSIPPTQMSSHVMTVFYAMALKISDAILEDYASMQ", "assay": "glucose oxidase inhibition, commercially available glucose oxidase kit", "type": "biochemical", "from_the_text": "This example describes the effectiveness of a compound of the invention for inhibiting the enzyme glucose oxidase.\nTo test the efficacy of 2-amino-4,5-dimethylthiazole HCl for the inhibition of glucose oxidase, a commercially available glucose oxidase kit was used."}, "[1]": {"system": "cross-links representative of AGEs", "assay": "AGE crosslink breaking, sandwich enzyme-linked immunoabsorbent assay", "conditions": "pre-formed protein-sugar cross-links in multi-well plates; buffer control", "experimental": "This example describes the efficacy of a compound of the invention for breaking crosslinks associated with AGEs using a sandwich enzyme-linked immunoabsorbent assay.\nA mixture of protein and sugar was incubated to form cross-links representative of AGEs and was placed in multi-well plates. The plates were then treated with either 2-amino-4,5-dimethylthiazole HCl or buffer. After treatment, the plates were rinsed to remove any free protein liberated by cross-link breakage. An antibody reactive to the protein was then added to the plates to provide quantitative levels of protein within the plate."}, "AGE formation": {"system": "AGE formation", "assay": "AGE formation inhibition: protein and sugar incubated at 37° C., gel formation", "conditions": "control tube forms a gel", "experimental": "This example describes the efficacy of a compound of the invention for inhibiting AGE formation.\nA control tube, containing protein and sugar, forms a gel with little or no remaining liquid when incubated at 37° C. Such a gel is indicative of extensive crosslinking associated with glycation."}},
  "data": [
    {"smiles": "Cc1nc(N)sc1C.Cl", "note": "[2-amino-4,5-dimethylthiazole HCl, 2-amino-4,5-dimethylthiazole hydrochloride]", "values": [
      {"measurement": "reduction of production of H2O2 as compared to a control sample", "setting": "glucose oxidase", "value": "greater than 60%"},
      {"measurement": "antibody bound in the plate as compared to the control plate", "setting": "[1]", "value": "less antibody bound"},
      {"measurement": "state of protein and sugar mixture (gel indicates crosslinking associated with glycation)", "setting": "AGE formation", "value": "remained liquid"}
    ]}
  ]
}
